# From patent publication US20230085307A1, “PYRIDAZINONE COMPOUND AND HERBICIDE” (NISSAN CHEMICAL CORPORATION, priority 2019, published 2023)
# Columns and labels:
# chickweed [1] = experiment: Test Example 5: herbicidal effect by foliage application, plastic box (Table 20, symbol P); assay type: in vivo, common chickweed (Stellaria media); details: foliage application, 320 g/ha, evaluated three weeks after application
# How it was run: (§1)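 Plants sown in sterilized diluvial soil and grown 14 days in a greenhouse at 25° C to 30° C, then sprayed on the foliage with the compound's emulsion diluted in water to a predetermined herbicide amount. Injury to weeds and crops scored three weeks after application on a visual rating scale.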
# barnyard grass [2] = experiment: Test Example 5: herbicidal effect by foliage application, plastic box (Table 20, symbol H); assay type: in vivo, barnyard grass (Echinochloa crus-galli); details: foliage application, 320 g/ha, evaluated three weeks after application
# How it was run: as §1
# late watergrass = experiment: Test Example 1: herbicidal activity, application before weed generation under submerged conditions (Table 16, symbol A); assay type: in vivo, late watergrass (Echinochloa oryzicola); details: 320 g/ha applied herbicide
# How it was run: (§2)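 Alluvial soil was flooded to 4 cm depth, weed seeds were sown mixed and 2.5-leaf rice seedlings were transplanted. On sowing day, the compound's emulsion, diluted in water to a set dose, was applied to the water surface. Plants grew at 25–30 °C and were scored 0–5 after three weeks.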
# windgrass [3] = experiment: Test Example 4: herbicidal effect by soil treatment (Table 19, symbol L); assay type: in vivo, windgrass (Apera spica-venti); details: amount of applied herbicide 320 g/ha
# How it was run: (§3)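 Three weeks of greenhouse growth at 25° C. to 30° C. followed a uniform surface spray of water-diluted emulsion at a predetermined herbicide amount. Seeds had been sown beforehand under about 1.5 cm of sterilized diluvial soil. Grading followed criteria set out in an earlier test.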
# barnyard grass [4] = experiment: Test Example 4: herbicidal effect by soil treatment (Table 19, symbol H); assay type: in vivo, barnyard grass (Echinochloa crus-galli); details: amount of applied herbicide 320 g/ha
# How it was run: as §3
# blackgrass [5] = experiment: Test Example 5: herbicidal effect by foliage application, plastic box (Table 20, symbol J); assay type: in vivo, blackgrass (Alopecurus myosuroides); details: foliage application, 320 g/ha, evaluated three weeks after application
# How it was run: as §1
# Chinese sprangletop = experiment: Test Example 3: herbicidal effect by foliage application, Wagner pot (Table 18, symbol D); assay type: in vivo, chinese sprangletop (Leptochloa chinensis); details: amount of applied herbicide 320 g/ha
# How it was run: (§4)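 Plants were sown in alluvial soil held under 0.1–0.5 cm standing water and grown 14 days in a greenhouse at 25–30 °C. An emulsifiable formulation, water-diluted to the set dose, was then sprayed onto the foliage, and effects were scored three weeks later using previously defined criteria.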
# redroot pigweed [6] = experiment: Test Example 4: herbicidal effect by soil treatment (Table 19, symbol N); assay type: in vivo, redroot pigweed (Amaranthus retroflexus); details: amount of applied herbicide 320 g/ha
# How it was run: as §3
# false cleavers = experiment: Test Example 5: herbicidal effect by foliage application, plastic box (Table 20, symbol Q); assay type: in vivo, false cleavers (Galium spurium); details: foliage application, 320 g/ha, evaluated three weeks after application
# How it was run: as §1
# wild oat [7] = experiment: Test Example 5: herbicidal effect by foliage application, plastic box (Table 20, symbol I); assay type: in vivo, wild oat (Avena fatua); details: foliage application, 320 g/ha, evaluated three weeks after application
# How it was run: as §1
# barnyard grass [8] = experiment: Test Example 3: herbicidal effect by foliage application, Wagner pot (Table 18, symbol H); assay type: in vivo, barnyard grass (Echinochloa crus-galli); details: amount of applied herbicide 320 g/ha
# How it was run: as §4
# blackgrass [9] = experiment: Test Example 4: herbicidal effect by soil treatment (Table 19, symbol J); assay type: in vivo, blackgrass (Alopecurus myosuroides); details: amount of applied herbicide 320 g/ha
# How it was run: as §3
# windgrass [10] = experiment: Test Example 5: herbicidal effect by foliage application, plastic box (Table 20, symbol L); assay type: in vivo, windgrass (Apera spica-venti); details: foliage application, 320 g/ha, evaluated three weeks after application
# How it was run: as §1
# lambsquarters [11] = experiment: Test Example 5: herbicidal effect by foliage application, plastic box (Table 20, symbol O); assay type: in vivo, lambsquarters (Chenopodium album); details: foliage application, 320 g/ha, evaluated three weeks after application
# How it was run: as §1
# wild oat [12] = experiment: Test Example 4: herbicidal effect by soil treatment (Table 19, symbol I); assay type: in vivo, wild oat (Avena fatua); details: amount of applied herbicide 320 g/ha
# How it was run: as §3
# oval-leafed pondweed = experiment: Test Example 1: herbicidal activity, application before weed generation under submerged conditions (Table 16, symbol C); assay type: in vivo, oval-leafed pondweed (Monochoria vaginalis); details: 320 g/ha applied herbicide
# How it was run: as §2
# Italian ryegrass [13] = experiment: Test Example 5: herbicidal effect by foliage application, plastic box (Table 20, symbol K); assay type: in vivo, Italian ryegrass (Lolium multiflorum); details: foliage application, 320 g/ha, evaluated three weeks after application
# How it was run: as §1
# lambsquarters [14] = experiment: Test Example 4: herbicidal effect by soil treatment (Table 19, symbol O); assay type: in vivo, lambsquarters (Chenopodium album); details: amount of applied herbicide 320 g/ha
# How it was run: as §3
# Japanese bulrush = experiment: Test Example 1: herbicidal activity, application before weed generation under submerged conditions (Table 16, symbol B); assay type: in vivo, Japanese bulrush (Schoenoplectus juncoides); details: 320 g/ha applied herbicide
# How it was run: as §2
# rice flat sedge = experiment: Test Example 3: herbicidal effect by foliage application, Wagner pot (Table 18, symbol E); assay type: in vivo, rice flat sedge (Cyperus iria); details: amount of applied herbicide 320 g/ha
# How it was run: as §4
# southern crabgrass [15] = experiment: Test Example 5: herbicidal effect by foliage application, plastic box (Table 20, symbol F); assay type: in vivo, southern crabgrass (Digitaria ciliaris); details: foliage application, 320 g/ha, evaluated three weeks after application
# How it was run: as §1
# velvetleaf [16] = experiment: Test Example 4: herbicidal effect by soil treatment (Table 19, symbol M); assay type: in vivo, velvetleaf (Abutilon theophrasti); details: amount of applied herbicide 320 g/ha
# How it was run: as §3
# green foxtail [17] = experiment: Test Example 5: herbicidal effect by foliage application, plastic box (Table 20, symbol G); assay type: in vivo, green foxtail (Setaria viridis); details: foliage application, 320 g/ha, evaluated three weeks after application
# How it was run: as §1
# persian speedwell [18] = experiment: Test Example 4: herbicidal effect by soil treatment (Table 19, symbol R); assay type: in vivo, Persian speedwell (Veronica persica); details: amount of applied herbicide 320 g/ha
# How it was run: as §3
# velvetleaf [19] = experiment: Test Example 5: herbicidal effect by foliage application, plastic box (Table 20, symbol M); assay type: in vivo, velvetleaf (Abutilon theophrasti); details: foliage application, 320 g/ha, evaluated three weeks after application
# How it was run: as §1
# green foxtail [20] = experiment: Test Example 4: herbicidal effect by soil treatment (Table 19, symbol G); assay type: in vivo, green foxtail (Setaria viridis); details: amount of applied herbicide 320 g/ha
# How it was run: as §3
# Italian ryegrass [21] = experiment: Test Example 4: herbicidal effect by soil treatment (Table 19, symbol K); assay type: in vivo, Italian ryegrass (Lolium multiflorum); details: amount of applied herbicide 320 g/ha
# How it was run: as §3
# southern crabgrass [22] = experiment: Test Example 4: herbicidal effect by soil treatment (Table 19, symbol F); assay type: in vivo, southern crabgrass (Digitaria ciliaris); details: amount of applied herbicide 320 g/ha
# How it was run: as §3
# chickweed [23] = experiment: Test Example 4: herbicidal effect by soil treatment (Table 19, symbol P); assay type: in vivo, common chickweed (Stellaria media); details: amount of applied herbicide 320 g/ha
# How it was run: as §3
# persian speedwell [24] = experiment: Test Example 5: herbicidal effect by foliage application, plastic box (Table 20, symbol R); assay type: in vivo, Persian speedwell (Veronica persica); details: foliage application, 320 g/ha, evaluated three weeks after application
# How it was run: as §1
# redroot pigweed [25] = experiment: Test Example 5: herbicidal effect by foliage application, plastic box (Table 20, symbol N); assay type: in vivo, redroot pigweed (Amaranthus retroflexus); details: foliage application, 320 g/ha, evaluated three weeks after application
# How it was run: as §1
compound,measurement,setting,value
Cc1nn(C)c(=O)c(-c2c(-c3ccc4c(c3)OCO4)sc3ccc(Cl)cc23)c1O [2-125],herbicidal effect on P: chickweed,chickweed [1],5 (Herbicidal rate of 90% or more (almost completely withered))
same,herbicidal effect on H: barnyard grass,barnyard grass [2],2 (Herbicidal rate of 20% or more and less than 40%)
same,Herbicidal effect on A: late watergrass (grade 0-5),late watergrass,0 (Herbicidal rate of 5% or less (almost no effect))
same,"L: windgrass, herbicidal effect rating",windgrass [3],0 (Herbicidal rate of 5% or less (almost no effect))
same,"H: barnyard grass, herbicidal effect rating",barnyard grass [4],0 (Herbicidal rate of 5% or less (almost no effect))
same,herbicidal effect on J: blackgrass,blackgrass [5],0 (Herbicidal rate of 5% or less (almost no effect))
same,herbicidal effect on D: Chinese sprangletop,Chinese sprangletop,3 (Herbicidal rate of 40% or more and less than 70%)
same,"N: redroot pigweed, herbicidal effect rating",redroot pigweed [6],5 (Herbicidal rate of 90% or more (almost completely withered))
same,herbicidal effect on Q: false cleavers,false cleavers,3 (Herbicidal rate of 40% or more and less than 70%)
same,herbicidal effect on I: wild oat,wild oat [7],0 (Herbicidal rate of 5% or less (almost no effect))
same,herbicidal effect on H: barnyard grass,barnyard grass [8],4 (Herbicidal rate of 70% or more and less than 90%)
same,"J: blackgrass, herbicidal effect rating",blackgrass [9],0 (Herbicidal rate of 5% or less (almost no effect))
same,herbicidal effect on L: windgrass,windgrass [10],0 (Herbicidal rate of 5% or less (almost no effect))
same,herbicidal effect on O: lambsquarters,lambsquarters [11],4 (Herbicidal rate of 70% or more and less than 90%)
same,"I: wild oat, herbicidal effect rating",wild oat [12],0 (Herbicidal rate of 5% or less (almost no effect))
same,Herbicidal effect on C: oval-leafed pondweed (grade 0-5),oval-leafed pondweed,0 (Herbicidal rate of 5% or less (almost no effect))
same,herbicidal effect on K: Italian ryegrass,Italian ryegrass [13],0 (Herbicidal rate of 5% or less (almost no effect))
same,"O: lambsquarters, herbicidal effect rating",lambsquarters [14],4 (Herbicidal rate of 70% or more and less than 90%)
same,Herbicidal effect on B: Japanese bulrush (grade 0-5),Japanese bulrush,2 (Herbicidal rate of 20% or more and less than 40%)
same,herbicidal effect on E: rice flat sedge,rice flat sedge,5 (Herbicidal rate of 90% or more (almost completely withered))
same,herbicidal effect on F: southern crabgrass,southern crabgrass [15],0 (Herbicidal rate of 5% or less (almost no effect))
same,"M: velvetleaf, herbicidal effect rating",velvetleaf [16],3 (Herbicidal rate of 40% or more and less than 70%)
same,herbicidal effect on G: green foxtail,green foxtail [17],0 (Herbicidal rate of 5% or less (almost no effect))
same,"R: persian speedwell, herbicidal effect rating",persian speedwell [18],5 (Herbicidal rate of 90% or more (almost completely withered))
same,herbicidal effect on M: velvetleaf,velvetleaf [19],4 (Herbicidal rate of 70% or more and less than 90%)
same,"G: green foxtail, herbicidal effect rating",green foxtail [20],0 (Herbicidal rate of 5% or less (almost no effect))
same,"K: Italian ryegrass, herbicidal effect rating",Italian ryegrass [21],0 (Herbicidal rate of 5% or less (almost no effect))
same,"F: southern crabgrass, herbicidal effect rating",southern crabgrass [22],0 (Herbicidal rate of 5% or less (almost no effect))
same,"P: chickweed, herbicidal effect rating",chickweed [23],5 (Herbicidal rate of 90% or more (almost completely withered))
same,herbicidal effect on R: persian speedwell,persian speedwell [24],5 (Herbicidal rate of 90% or more (almost completely withered))
same,herbicidal effect on N: redroot pigweed,redroot pigweed [25],3 (Herbicidal rate of 40% or more and less than 70%)
